Laboratory results: EP3748362A1, “IN VITRO METHOD FOR DETECTING RENAL DISEASE” (Fundacion Instituto De Investigacion Sanitaria Fundacion …, priority 2019, dated 2020)

What was measured:
[1] = tested on: TRAF3; experiment: TRAF3 protein (western blot) and mRNA (real time RT-PCR) levels in PBMCs from ESRD patients treated or not with paricalcitol; type: in vivo, human; settings: PBMCs of paricalcitol-treated ESRD patients on hemodialysis
Method: Intracellular protein and mRNA levels were measured in PBMCs from ESRD patients on hemodialysis. Inclusion criteria were as follows: age >45 years; male sex; informed consent; and absence of active inflammatory, infectious, or malignant diseases at the initiation or during the study. This study was approved by the IIS-Fundación Jiménez Diaz Ethics Committee. Patients were enrolled after providing written informed consent. PBMCs were separated from whole blood samples (30 ml into EDTA tubes) by a density gradient centrifugation method using Ficoll density gradient centrifugation. In total, 50x10^6 of PBMCs were obtained from 30 ml of whole blood and 6x10^6 PBMCs were used to isolate protein, RNA and nuclear/cytosolic protein levels using the NE-PER Reagent (Pierce) following the manufacturer's instructions.
(§1) For western blot, cell (25 µg/lane) and kidney (100-150 µg/lane) protein extracts were separated on 6%-12% polyacrylamide-SDS gels under reducing conditions. […] Autoradiographs were scanned using the Gel Doc™ EZ imager and analyzed with the Image Lab 3.0 software (BioRad).
Total RNA was isolated from cells and mouse kidney samples with Trizol (Invitrogen). […] The mRNA copy numbers were calculated for each sample by the instrument software using Ct value. Results are expressed in copy numbers, calculated relative to unstimulated cells or control mice, after normalization against 18S.

[2] = tested on: TRAF3; experiment: TRAF3 western blot in TWEAK-stimulated PBMCs from healthy donors; type: cell-based, Human; settings: paricalcitol 15 umol/L 48 hours before TWEAK 100 ng/ml for 24 hours
[3] = tested on: NF-κB2; experiment: Non-canonical NF-κB2 activation (western blot) in TWEAK-stimulated HK2 cells; type: cell-based, Human; settings: 12 µM paricalcitol for 48 hours, TWEAK 100 ng/ml 6 hours
Method: Human kidney proximal tubule epithelial cells (HK2 cell line, ATCC CRL-2190) were grown in RPMI 1640 with 10% fetal bovine serum (FBS), 1% glutamine, 100 U/ml penicillin, 100 µg/ml streptomycin, 5 µg/ml insulin-transferrin-selenite and 36 ng/ml hydrocortisone in 5% CO2 at 37° C. When cells reached 60 to 70% confluence, they were serum-depleted for 24 hours before the experiment.
Cells were stimulated with 100ng/ml recombinant human soluble TWEAK (Millipore) or p-200 µg/ml cresyl-sulfate (Raymond Vanholder and Griet Glorieux, University of Gent, Belgium). Concentrations of TWEAK and p-cresyl-sulfate were based on previously published dose-response experiments (Poveda et al. 2014; Sanz et al. 2008). In some experiments cells were preincubated for 48 hours with the paricalcitol 12 µmol/L (Abbott) prior to stimulation. DMSO, used as a solvent in some cases, had no effect on cell viability or on gene expression levels.
as §1

C[C@H](/C=C/[C@H](C)C(C)(C)O)[C@H]1CC[C@H]2/C(=C/C=C3C[C@@H](O)C[C@H](O)C3)CCC[C@]12C [paricalcitol]
TRAF3 mRNA levels ([1]; real time RT-PCR): no changes | TRAF3 protein levels ([1]; western blot, vs healthy controls): restored to values in the range of healthy controls | TWEAK-induced TRAF3 degradation [2]: inhibited | TWEAK-induced IKK-α phosphorylation, the increase in NIK, and p52 and RelB nuclear levels [3]: inhibited
